Columns and labels:
[1] = system: ovarian activity and ovulation in women; experiment: Prospective, randomized, parallel-group clinical study of ovarian activity after ellaOne taken after three missed COC pills; format: in vivo; settings: for ovulation with risk of pregnancy: Arm 1, COC resumed same day as UPA 30 mg, any time of experimental cycle, N=26
Experimental: To determine the effect on ovarian activity and ovulation, of waiting five days before re-starting combined oral contraception (COC), or restarting immediately, having taken ulipristal acetate (UPA) for emergency contraception (EC) after missing three COC pills.
Women were enrolled for three cycles of COC use in a 21/7 regimen. In cycle 3 all women omitted COC pills for three consecutive days (days 5, 6, 7) and on day 8 took UPA-EC (30 mg). Half the women restarted their COC pills that same day while the remainder waiting for five days before restarting. Transvaginal ultrasound (TVUS) and blood sampling for estrogen and progesterone (E and P) was undertaken in all women on days 4, 8, 11, 13, 15, 18, 22 and 26. If a follicle of >13 mm diameter was seen, TVUS and blood sampling were performed daily until a post-ovulatory follicle was seen.
Women aged 18-30, weighing ≤30 kg/m^2 participated in the study during use of three consecutive packets of COCP. Women with contraindications to the COC or with conditions associated with anovulation (e.g. polycystic ovarian syndrome), and women who were breastfeeding or using any other hormonal contraception or an intrauterine device (IUD) were excluded. Screening was undertaken during cycle 1. Throughout the study women kept a daily diary of pill intake and vaginal bleeding. All women were instructed to take their pills at the same time every evening and to follow standard rules during the first two cycles of pill use for missed pills or for vomiting after taking a pill. The duration of COC intake in cycle 1 was adjusted (to no less than 14 and no more than 21 pills) to allow the first day of cycle 2 (baseline cycle—BSL) to fall on a weekday. After a seven-day hormone free interval (HFI) all women switched to the study COC containing 30 μg ethinyl estradiol/150 μg levonorgestrel with seven placebo tablets. Cycle three (Experimental cycle—EXP), started after a seven-day HFI at the end of BSL. After transvaginal ultrasound (TVUS) on day 1 of pill intake women were randomized so that an equal number of women with ovarian follicles of diameter ≤10 mm, or >10 mm and ≤13 mm or >13 mm were allocated to one of two study arms. After 4 days of COC, all women deliberately missed their COC pill on three consecutive days (5, 6, 7) and on the morning of day 8 all took a single 30 mg tablet of ellaOne® (ulipristal acetate 30 mg). Women in arm 1 of the study (immediate re-start) resumed daily COC intake that evening (D8) while those in arm 2 waited 5 days, re-starting their OC pill on the evening of D13 (delayed re-start). Once restarted, the COCP was continued until the packet was finished. A high sensitivity urinary pregnancy test was undertaken on day 1 of BSL and EXP and at the final study visit one or two days after the HFI following the end of the pill pack. Adverse event information was collected at every visit and blood sampling for haemoglobin and liver function was performed four times during the study.
An ovarian activity score developed from the Hoogland score (Hoogland and Skouby 1993, Contraception, 1993. 47(6): p. 583-90). The ovary was considered quiescent (OSq) if estradiol concentration was ≤0.1 nmol/L and progesterone ≤5 nmol/L even if a follicle of >13 mm was present. […] Ovulation was considered at risk of pregnancy (OSp) if there was a postovulatory image on TVUS and progesterone concentrations were >30 nmol/L on one occasion or between 10-30 nmol/L on two consecutive occasions.
The proportion of women who were at risk of pregnancy (OSp) at any time during the experimental cycle, including those who ovulated within the five days following ellaOne® intake, was estimated and the exact (Clopper-Pearson) two-sided 95% confidence interval was provided for each arm. The difference between the two arms was tested through an exact without stratum adjustment due to insufficient number of women in the self-weighted strata. […]

ovulation in women = settings: COC started two days after ulipristal acetate intake; cited from earlier work
[2] = Arm 1 immediate COCP re-start (D8), experimental cycle D 1
[3] = Arm 1 immediate COCP re-start (D8), experimental cycle D 4
[4] = Arm 1 immediate COCP re-start (D8), experimental cycle D 8
[5] = Arm 1 immediate COCP re-start (D8), experimental cycle D 11
[6] = Arm 1 immediate COCP re-start (D8), experimental cycle D 13
[7] = Arm 1 immediate COCP re-start (D8), experimental cycle D 15
[8] = Arm 1 immediate COCP re-start (D8), experimental cycle D 18
[9] = Arm 1 immediate COCP re-start (D8), experimental cycle D 22
[10] = Arm 1 immediate COCP re-start (D8), experimental cycle D 26
[11] = Arm 2 delayed COCP re-start (D13), experimental cycle D 1
[12] = Arm 2 delayed COCP re-start (D13), experimental cycle D 4
[13] = Arm 2 delayed COCP re-start (D13), experimental cycle D 8
[14] = Arm 2 delayed COCP re-start (D13), experimental cycle D 11
[15] = Arm 2 delayed COCP re-start (D13), experimental cycle D 13
[16] = Arm 2 delayed COCP re-start (D13), experimental cycle D 15
[17] = Arm 2 delayed COCP re-start (D13), experimental cycle D 18
[18] = Arm 2 delayed COCP re-start (D13), experimental cycle D 22
[19] = Arm 2 delayed COCP re-start (D13), experimental cycle D 26

CC(=O)O[C@]1(C(C)=O)CC[C@H]2[C@@H]3CCC4=CC(=O)CCC4=C3[C@@H](c3ccc(N(C)C)cc3)C[C@@]21C [ellaOne, 17α-acetoxy-11β-[4-N,N-dimethylamino-phenyl]-19-norpregna-4,9-diene-3,20-dione]
ovulation with risk of pregnancy ([1]; listed as Ella): no ovulation at risk of pregnancy occurred
ovulation with risk of pregnancy ([1]; listed as Ellaone): no woman
number of women with ovarian activity without risk of pregnancy (OSa) ([1]; Arm 1, immediate COC re-start, experimental cycle): one
OSa (ovarian activity not at risk of pregnancy), women with status/women monitored [1, 2]: 0/26
OSp (ovulation at risk of pregnancy), women with status/women monitored [1, 2]: 0/26
OSq (ovary quiescent), women with status/women monitored [1, 2]: 26/26
OSa (ovarian activity not at risk of pregnancy), women with status/women monitored [1, 3]: 1/26
OSp (ovulation at risk of pregnancy), women with status/women monitored [1, 3]: 0/26
OSq (ovary quiescent), women with status/women monitored [1, 3]: 25/26
OSa (ovarian activity not at risk of pregnancy), women with status/women monitored [1, 4]: 2/26
OSp (ovulation at risk of pregnancy), women with status/women monitored [1, 4]: 0/26
OSq (ovary quiescent), women with status/women monitored [1, 4]: 24/26
OSa (ovarian activity not at risk of pregnancy), women with status/women monitored [1, 5]: 1/26
OSp (ovulation at risk of pregnancy), women with status/women monitored [1, 5]: 0/26
OSq (ovary quiescent), women with status/women monitored [1, 5]: 25/26
OSa (ovarian activity not at risk of pregnancy), women with status/women monitored [1, 6]: 1/26
OSp (ovulation at risk of pregnancy), women with status/women monitored [1, 6]: 0/26
OSq (ovary quiescent), women with status/women monitored [1, 6]: 25/26
OSa (ovarian activity not at risk of pregnancy), women with status/women monitored [1, 7]: 1/26
OSp (ovulation at risk of pregnancy), women with status/women monitored [1, 7]: 0/26
OSq (ovary quiescent), women with status/women monitored [1, 7]: 25/26
OSa (ovarian activity not at risk of pregnancy), women with status/women monitored [1, 8]: 1/26
OSp (ovulation at risk of pregnancy), women with status/women monitored [1, 8]: 0/26
OSq (ovary quiescent), women with status/women monitored [1, 8]: 25/26
OSa (ovarian activity not at risk of pregnancy), women with status/women monitored [1, 9]: 1/26
OSp (ovulation at risk of pregnancy), women with status/women monitored [1, 9]: 0/26
OSq (ovary quiescent), women with status/women monitored [1, 9]: 25/26
OSa (ovarian activity not at risk of pregnancy), women with status/women monitored [1, 10]: 1/26
OSp (ovulation at risk of pregnancy), women with status/women monitored [1, 10]: 0/26
OSq (ovary quiescent), women with status/women monitored [1, 10]: 24/25
proportion of women who ovulated with risk of pregnancy ([1]; Arm 2, COC re-start delayed five days after UPA 30 mg, experimental cycle, CI 5.0-38.8, p=0.042 vs Arm 1): 17.4%
number of women who ovulated with risk of pregnancy ([1]; Arm 2, COC re-start delayed five days, more than 5 days after UPA-EC, before end of experimental cycle, N=23): Four
number of women with resumption of follicle growth ([1]; Arm 2, delayed COC re-start, remainder of experimental cycle): Eight
OSa (ovarian activity not at risk of pregnancy), women with status/women monitored [1, 11]: 1/23
OSp (ovulation at risk of pregnancy), women with status/women monitored [1, 11]: 0/23
OSq (ovary quiescent), women with status/women monitored [1, 11]: 22/23
OSa (ovarian activity not at risk of pregnancy), women with status/women monitored [1, 12]: 3/23
OSp (ovulation at risk of pregnancy), women with status/women monitored [1, 12]: 0/23
OSq (ovary quiescent), women with status/women monitored [1, 12]: 20/23
OSa (ovarian activity not at risk of pregnancy), women with status/women monitored [1, 13]: 4/23
OSp (ovulation at risk of pregnancy), women with status/women monitored [1, 13]: 0/23
OSq (ovary quiescent), women with status/women monitored [1, 13]: 19/23
OSa (ovarian activity not at risk of pregnancy), women with status/women monitored [1, 14]: 6/23
OSp (ovulation at risk of pregnancy), women with status/women monitored [1, 14]: 0/23
OSq (ovary quiescent), women with status/women monitored [1, 14]: 17/23
OSa (ovarian activity not at risk of pregnancy), women with status/women monitored [1, 15]: 5/22
OSp (ovulation at risk of pregnancy), women with status/women monitored [1, 15]: 0/22
OSq (ovary quiescent), women with status/women monitored [1, 15]: 17/22
OSa (ovarian activity not at risk of pregnancy), women with status/women monitored [1, 16]: 7/23
OSp (ovulation at risk of pregnancy), women with status/women monitored [1, 16]: 0/23
OSq (ovary quiescent), women with status/women monitored [1, 16]: 16/23
OSa (ovarian activity not at risk of pregnancy), women with status/women monitored [1, 17]: 8/23
OSp (ovulation at risk of pregnancy), women with status/women monitored [1, 17]: 1/23
OSq (ovary quiescent), women with status/women monitored [1, 17]: 14/23
OSa (ovarian activity not at risk of pregnancy), women with status/women monitored [1, 18]: 2/23
OSp (ovulation at risk of pregnancy), women with status/women monitored [1, 18]: 4/23
OSq (ovary quiescent), women with status/women monitored [1, 18]: 17/23
OSa (ovarian activity not at risk of pregnancy), women with status/women monitored [1, 19]: 4/23
OSp (ovulation at risk of pregnancy), women with status/women monitored [1, 19]: 4/23
OSq (ovary quiescent), women with status/women monitored [1, 19]: 15/23
interference between the COC and EllaOne ([1]; COC resumed the same day as EllaOne 30 mg): no interference
effect of starting COC on efficacy of ulipristal acetate to inhibit or delay ovulation (ovulation in women): significantly impairs efficacy

— US20200316091A1, “METHOD FOR PROVIDING CONTRACEPTION” (LABORATOIRE HRA-PHARMA, priority 2019, published 2020)
